This assay deals with HCV 1b_Huh-Luc/Neo-ET cell line persistently expressing a bicistronic genotype 1b replicon in Huh 7 cells. As to the kind of experiment: HCV replicon assay (luciferase readout). To be noted: Hepatitis C virus, Huh-7, 72 h, read-out: Inhibition of HCV genotype 1b. The assay is classed as cell-based. In short, it runs like this:
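EC50, determined repeatedly, comes from a four-parameter logistic fit of luciferase signal as percent of untreated control. Readout follows 72 h compound exposure, in triplicate, of the HCV 1b_Huh-Luc/Neo-ET replicon line.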
For `COC(=O)N[C@@H](CCC(N)=O)C(=O)N1CCC[C@H]1c1ncc(-c2ccc(C#Cc3ccc4nc([C@@H]5CCCN5C(=O)[C@H](CCC(N)=O)NC(=O)OC)[nH]c4c3)cc2)[nH]1` [Compound 1051], the EC50 was in the range of 1 to 9.9 nM.
Then `C(#Cc1ccc2nc([C@@H]3CCCN3Cc3ccccc3)[nH]c2c1)c1ccc(-c2cnc([C@@H]3CCCN3Cc3ccccc3)[nH]2)cc1` [Compound 1052], with above 1000 nM; and `COC(=O)N[C@H](C(=O)N1CCC[C@H]1c1nc2ccc(C#Cc3ccc(-c4cnc([C@@H]5CCCN5C(=O)[C@H](NC(=O)OC)C(C)C)[nH]4)cc3)cc2[nH]1)C(C)C` [Compound 1053], with below 1 nM.
As for `COC(=O)N[C@H](C(=O)N1CCC[C@H]1c1ncc(-c2ccc(C#Cc3ccc4nc([C@@H]5CCCN5C(=O)[C@H](NC(=O)OC)C(C)C)[nH]c4c3)cc2)[nH]1)C(C)C` [Compound 1054], the EC50 was below 1 nM.
On to `COC(=O)N[C@H](C(=O)N1CCC[C@H]1c1nc2ccc(C#Cc3ccc(-c4cnc([C@@H]5CCCN5)[nH]4)cc3)cc2[nH]1)C(C)C` [Compound 1055], for which the EC50 is 10 to 999 nM.
Take `COC(=O)N[C@H](C(=O)N1CCC[C@H]1c1ncc(-c2ccc(C#Cc3ccc4nc([C@@H]5CCCN5)[nH]c4c3)cc2)[nH]1)C(C)C` [Compound 1056]: the EC50 lay in the range of 10 to 999 nM.
`COC(=O)N[C@@H](Cc1c[nH]c2ccccc12)C(=O)N1CCC[C@H]1c1ncc(-c2ccc(C#Cc3ccc4nc([C@@H]5CCCN5C(=O)[C@H](Cc5c[nH]c6ccccc56)NC(=O)OC)[nH]c4c3)cc2)[nH]1` [Compound 1057]: the EC50 was below 1 nM.
For `COC(=O)N[C@@H]1CCC[C@H]1C(=O)N1CCC[C@H]1c1ncc(-c2ccc(C#Cc3ccc4nc([C@@H]5CCCN5C(=O)[C@@H]5CCC[C@H]5NC(=O)OC)[nH]c4c3)cc2)[nH]1` [Compound 1058], the EC50 lay within 10 to 999 nM.
Then `COC(=O)N[C@H]1CCC[C@@H]1C(=O)N1CCC[C@H]1c1ncc(-c2ccc(C#Cc3ccc4nc([C@@H]5CCCN5C(=O)[C@H]5CCC[C@@H]5NC(=O)OC)[nH]c4c3)cc2)[nH]1` [Compound 1059], with 10 to 999 nM; and `COC(=O)N[C@H](C(=O)N1CCC[C@H]1c1ncc(-c2cc(C)c(C#Cc3ccc4nc([C@@H]5CCCN5C(=O)[C@@H](NC(=O)OC)C(C)C)[nH]c4c3)c(C)c2)[nH]1)C(C)C` [Compound 1060], with below 1 nM.
On to `COC(=O)N[C@@H](CC(=O)O)C(=O)N1CCC[C@H]1c1ncc(-c2ccc(C#Cc3ccc4nc([C@@H]5CCCN5C(=O)[C@H](CC(=O)O)NC(=O)OC)[nH]c4c3)cc2)[nH]1` [Compound 1061], for which the EC50 is 10 to 999 nM.
On to `COC(=O)N[C@H](C(=O)N1CCSC[C@H]1c1ncc(-c2ccc(C#Cc3ccc4nc([C@@H]5CCCN5C(=O)[C@@H](NC(=O)OC)C(C)C)[nH]c4c3)cc2)[nH]1)C(C)C` [Compound 1062], for which the EC50 was below 1 nM.
For the compound `COC(=O)N1CCC[C@H]1C(=O)N1CCC[C@H]1c1ncc(-c2ccc(C#Cc3ccc4nc([C@@H]5CCCN5C(=O)[C@@H]5CCCN5C(=O)OC)[nH]c4c3)cc2)[nH]1` [Compound 1063], the EC50 was in the range of 10 to 999 nM.
As for `COC(=O)N[C@@H](CC(=O)N1CCC[C@H]1c1ncc(-c2ccc(C#Cc3ccc4nc([C@@H]5CCCN5C(=O)C[C@H](NC(=O)OC)C(C)C)[nH]c4c3)cc2)[nH]1)C(C)C` [Compound 1064], the EC50 was 10 to 999 nM.
On to `COC(=O)N[C@H](CC(=O)N1CCC[C@H]1c1ncc(-c2ccc(C#Cc3ccc4nc([C@@H]5CCCN5C(=O)C[C@@H](NC(=O)OC)C(C)C)[nH]c4c3)cc2)[nH]1)C(C)C` [Compound 1065], for which the EC50 lay within 10 to 999 nM.
To `COCCOc1c(C#Cc2ccc3nc([C@@H]4CCCN4C(=O)[C@@H](NC(=O)OC)C(C)C)[nH]c3c2)ccc(-c2cnc([C@@H]3CCCN3C(=O)[C@H](NC(=O)OC)C(C)C)[nH]2)c1OCCOC` [Compound 1066] belongs below 1 nM.
In the case of `COC(=O)N[C@@H](CC(C)C)C(=O)N1CCC[C@H]1c1ncc(-c2ccc(C#Cc3ccc4nc([C@@H]5CCCN5C(=O)[C@H](CC(C)C)NC(=O)OC)[nH]c4c3)cc2)[nH]1` [Compound 1067], the EC50 is below 1 nM.
Regarding `COC(=O)N[C@H](C(=O)N1CC[C@H](O)[C@H]1c1ncc(-c2ccc(C#Cc3ccc4nc([C@@H]5CCCN5C(=O)[C@@H](NC(=O)OC)C(C)C)[nH]c4c3)cc2)[nH]1)C(C)C` [Compound 1068], the EC50 was below 1 nM.
Take `COC(=O)N[C@H](C(=O)N1CCC[C@H]1c1ncc(-c2ccc(C#Cc3ccc4nc([C@@H]5CCCN5C(=O)[C@@H](NC(=O)OC)C5CCOCC5)[nH]c4c3)cc2F)[nH]1)C1CCOCC1` [Compound 1070]: the EC50 was below 1 nM.
Then `COC(=O)N[C@H](C(=O)N1CCC[C@H]1c1nc(-c2cnc3cc(C#Cc4cnc([C@@H]5CCCN5C(=O)[C@@H](NC(=O)OC)C(C)C)[nH]4)ccc3c2)c[nH]1)C(C)C` [Compound 1076], with below 1 nM.
On to `COC(=O)N[C@H](C(=O)N1CCC[C@H]1c1nc(-c2ccc3cc(C#Cc4cnc([C@@H]5CCCN5C(=O)[C@H](NC(=O)OC)c5ccccc5)[nH]4)ccc3c2)c[nH]1)C(C)C` [Compound 1077], for which the EC50 is below 1 nM.
On to `COC(=O)N[C@H](C(=O)N1CCC[C@H]1c1nc(-c2ccc3cc(C#Cc4cnc([C@@H]5CCCN5C(=O)[C@@H](NC(=O)OC)C(C)C)[nH]4)ccc3c2)c[nH]1)c1ccccc1` [Compound 1078], for which the EC50 was below 1 nM.
To `COC(=O)N[C@H](C(=O)N1CCC[C@H]1c1nc(-c2ccc3cc(C#Cc4cnc([C@@H]5CCCN5C(=O)[C@@H](NC(=O)OC)C5CCOCC5)[nH]4)ccc3c2)c[nH]1)C(C)C` [Compound 1079] belongs below 1 nM.
Take `COC(=O)N[C@H](C(=O)N1CCC[C@H]1c1nc2ccc(C#Cc3ccc(-c4ccc5nc([C@@H]6CCCN6C(=O)[C@@H](NC(=O)OC)C(C)C)[nH]c5c4)nc3)cc2[nH]1)C(C)C` [Compound 1083]: the EC50 was below 1 nM.
To `COC(=O)N[C@H](C(=O)N1CCC[C@H]1c1ncc(C#Cc2ccc(-c3ccc4nc([C@@H]5CCCN5C(=O)[C@@H](NC(=O)OC)C(C)C)[nH]c4c3)cc2)[nH]1)C(C)C` [Compound 1084] belongs below 1 nM.
Turning to `COC(=O)N[C@H](C(=O)N1CCC[C@H]1c1nc2ccc(-c3ccc(C#Cc4cnc([C@@H]5CCCN5C(=O)[C@H](NC(=O)OC)c5ccccc5)[nH]4)cc3)cc2[nH]1)C(C)C` [Compound 1085], the EC50 is below 1 nM.
Then `COC(=O)N[C@H](C(=O)N1CCC[C@H]1c1ncc(C#Cc2ccc(-c3ccc4nc([C@@H]5CCCN5C(=O)[C@@H](NC(=O)OC)C(C)C)[nH]c4c3)nc2)[nH]1)C(C)C` [Compound 1086], with below 1 nM.
As to `COC(=O)N[C@H](C(=O)N1CCC[C@H]1c1ncc(C#Cc2ccc(-c3ccc4nc([C@@H]5CCCN5C(=O)[C@H](NC(=O)OC)c5ccccc5)[nH]c4c3)nc2)[nH]1)C(C)C` [Compound 1087], the EC50 is below 1 nM.
For the compound `COC(=O)N[C@H](C(=O)N1CCC[C@H]1c1nc(-c2cnc3cc(C#Cc4ccc(-c5cnc([C@@H]6CCCN6C(=O)[C@@H](NC(=O)OC)C(C)C)[nH]5)cc4)ccc3c2)c[nH]1)C(C)C` [Compound 1088], the EC50 lay in the range of 1 to 9.9 nM.
To `COC(=O)N[C@H](C(=O)N1CCC[C@H]1c1nc(-c2cnc3cc(C#Cc4ccc(-c5cnc([C@@H]6CCCN6C(=O)[C@@H](NC(=O)OC)c6ccccc6)[nH]5)cc4)ccc3c2)c[nH]1)c1ccccc1` [Compound 1089] belongs 1 to 9.9 nM.
On to `COC(=O)N[C@H](C(=O)N1CCC[C@H]1c1nc2c([nH]1)-c1ccc(C#Cc3ccc(-c4cnc([C@@H]5CCCN5C(=O)[C@@H](NC(=O)OC)C5CCOCC5)[nH]4)cc3)cc1CC2)C(C)C` [Compound 1091], for which the EC50 was below 1 nM.
To `COC(=O)N[C@H](C(=O)N1CCC[C@H]1c1nc2ccc3cc(C#Cc4ccc(-c5cnc([C@@H]6CCCN6C(=O)[C@@H](NC(=O)OC)C6CCOCC6)[nH]5)cc4)ccc3c2[nH]1)C(C)C` [Compound 1092] belongs below 1 nM; to `COC(=O)N[C@H](C(=O)N1CCC[C@H]1c1nc2ccc3cc(C#Cc4ccc(-c5cnc([C@@H]6CCCN6C(=O)[C@H](NC(=O)OC)c6ccccc6)[nH]5)cc4)ccc3c2[nH]1)C(C)C` [Compound 1093], below 1 nM; to `COC(=O)N[C@H](C(=O)N1CCC[C@H]1c1ncc(-c2ccc(C#Cc3ccc4c(c3)CCc3nc([C@@H]5CCCN5C(=O)[C@@H](NC(=O)OC)C(C)C)[nH]c3-4)cc2)[nH]1)C(C)C` [Compound 1094], below 1 nM.
As to `COC(=O)N[C@H](C(=O)N1CCC[C@H]1c1ncc(-c2ccc(C#Cc3ccc4c(ccc5nc([C@@H]6CCCN6C(=O)[C@@H](NC(=O)OC)C(C)C)[nH]c54)c3)cc2)[nH]1)C(C)C` [Compound 1095], the EC50 was below 1 nM.
For the compound `COC(=O)N[C@H](C(=O)N1CCC[C@H]1c1ncc(-c2ccc(C#Cc3ccc4c(c3)CCCc3nc([C@@H]5CCCN5C(=O)[C@@H](NC(=O)OC)C(C)C)[nH]c3-4)cc2)[nH]1)C(C)C` [Compound 1096], the EC50 is below 1 nM.
Take `COC(=O)N[C@H](C(=O)N1CCC[C@H]1c1nc2c([nH]1)-c1ccc(C#Cc3ccc(-c4cnc([C@@H]5CCCN5C(=O)[C@@H](NC(=O)OC)C5CCOCC5)[nH]4)cc3)cc1CCC2)C(C)C` [Compound 1097]: the EC50 is below 1 nM.
Then `COC(=O)N[C@H](C(=O)N1CCC[C@H]1c1nc2c([nH]1)-c1ccc(C#Cc3ccc(-c4cnc([C@@H]5CCCN5C(=O)[C@H](NC(=O)OC)c5ccccc5)[nH]4)cc3F)cc1CC2)C(C)C` [Compound 1098], with below 1 nM; and `COC(=O)N[C@H](C(=O)N1CCC[C@H]1c1nc2ccc3cc(C#Cc4ccc(-c5cnc([C@@H]6CCCN6C(=O)[C@@H](NC(=O)OC)C6CCOCC6)[nH]5)cc4F)ccc3c2[nH]1)C(C)C` [Compound 1099], with below 1 nM; and `COC(=O)N[C@H](C(=O)N1CCC[C@H]1c1nc2ccc3cc(C#Cc4ccc(-c5cnc([C@@H]6CCCN6C(=O)[C@H](NC(=O)OC)c6ccccc6)[nH]5)cc4F)ccc3c2[nH]1)C(C)C` [Compound 1100], with below 1 nM.

(Values after patent US8865756B2, “Inhibitors of HCV NS5A” (Presidio Pharmaceuticals, Inc., priority 2008, dated 2014).)
